Source: PubChem BioAssay AID179 (DTP/NCI, 2004)
Values joined by “and” are separate entries in the source; they are usually repeats but may differ in a detail not shown here. Identical values can stand only once. Active and inactive are the calls of the source.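 How the source made its calls: active means compounds giving half or more protection of infected cells from virus-caused growth loss, again on retest; inactive means the rest.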 Where a SMILES comes first, the peptide text is derived from it. Bridges are numbered along the chain shown (N, C = ends). [ ]: non-standard residue; d: D form. The star is where a group is joined. ONp = O=[N+]([O-])c1ccc(O*)cc1; Orn = NCCC[CH](N)C(=O)O; Cbz = O=C(OCc1ccccc1)*; OBn = c1ccc(CO*)cc1

System: CEM cells HIV-1 protection, formazan growth assay
Assay: NCI AIDS Antiviral Assay
Conditions: for IC50: measured here: growth of uninfected CEM cells
Description: The ability of compounds to protect human CEM cells from HIV-1 infection is measured as a screen for new compounds capable of inhibiting the HIV virus. Five concentrations of drug were tested on uninfected and infected cells and cell growth was measured using a soluble formazan assay. […] Compounds that provided at least 50% protection were retested. Compounds that provided at least 50% protection on retest were listed as moderately active. Compounds that reproducibly provided 100% protection were listed as confirmed active. […] Note that the inability to provide protection could be due to toxicity.

Row | SMILES | EC50 | IC50 | outcome
1 | O=C(CNC(=O)C(CCC(=O)OCc1ccccc1)NC(=O)OCc1ccccc1)NCC(=O)NC(CO)C(=O)NCC(=O)Oc1ccc([N+](=O)[O-])cc1 (configuration not stated) (Cbz-E(OBn)GGSG-ONp; configuration not given here) | > 91.2 µM | > 91.2 µM | 
2 | CC(C)(C)OC(=O)N(CCCCNC(=O)OCc1ccccc1)CCCNC(=O)OCc1ccccc1 | > 200 µM | 4.47 µM | 
3 | CCOc1cc2c(cc1O)/C(=N\N)C[C@@H]1[C@@H]2CC[C@]2(C)[C@@H](O)CC[C@@H]12 | > 2 µM | 0.209 µM | 
4 | CC(C)(C)OC/C=C1\C(=O)O[C@H]2C[C@@H](O[Si](C)(C)C(C)(C)C)C[C@@H]12 | > 200 µM | 39.8 µM | 
5 | CC1CN1P(=O)(OCCC#N)N1CC1C (configuration not stated) | > 200 µM | > 200 µM | 
6 | Cc1cc(C)n2c(-c3ccccc3)c(C)cc2n1 | > 110 µM | 17.4 µM | 
7 | Cc1c(C(=O)O)c2cc3ccccc3cc2c(=O)n1C | > 200 µM | > 200 µM | 
8 | Nc1ccc(C(=O)NN2C(=O)C(Cl)C2c2cc(Br)ccc2O)cc1 (configuration not stated) | > 200 µM | 30.9 µM | 
9 | Cc1cccc2oc3c(c(=O)c12)CC(O)C(C)(C)O3 (configuration not stated) | > 200 µM | 79.4 µM | 
10 | O=c1[nH]c(=O)n(COCCO)c2ccc(Br)cc12 | > 200 µM | > 200 µM | 
11 | CCOC(=O)C1=C(O)c2c(sc(C)c2C)N(S(=O)(=O)c2ccc(C)cc2)CC1 | > 200 µM | 52.5 µM | 
12 | O=c1cc2n(c(=O)[nH]1)C1OC(C(O)C1O)[C@H]2CCO (some centres not stated) |  |  | inactive
13 | CC(=O)Nc1cc(S(=O)(=O)O)cc2cc(S(=O)(=O)O)cc(O)c12 | > 200 µM | > 200 µM | 
14 | CCN(CC)CCNC(=O)c1cn2c(ccc3sc4ccccc4c(=O)c32)n1 | > 20 µM | 1.1 µM | 
15 | S=c1ncc2c([nH]1)C1c3ccccc3C2c2ccccc21 | > 200 µM | 120 µM | 
16 | COc1cc2c(cc1OC)C(=O)Cc1ccc3c(c1CNCC2)OCO3 | > 141 µM | > 141 µM | 
17 | CCOC(=O)NC(Nc1ccc(C(=O)OCC)cc1)(C(F)(F)F)C(F)(F)F | > 200 µM | 17 µM | 
18 | Cc1nn(C(=O)Cc2ccccc2)c2c1C(c1ccccc1[N+](=O)[O-])SC(N)=N2 (configuration not stated) | > 501 µM | 87.1 µM | 
19 | O=S(=O)(O)c1ccc(O)c(N=Nc2ccc(/C=C/c3ccc(N=Nc4cc(S(=O)(=O)O)ccc4O)cc3S(=O)(=O)O)c(S(=O)(=O)O)c2)c1 | > 200 µM | 126 µM | 
20 | COc1cc2c(cc1O)CC1c3c(cc(O)c(OC)c3-2)CCN1C (configuration not stated) | > 200 µM | 69.2 µM | 
21 | Cc1ccc(-c2nnc(CCCCCCCCc3nnc(-c4ccc(C)cc4O)n3N)n2N)c(O)c1 | > 200 µM | 120 µM | 
22 | Cc1cccc2c(NCCC[N+](C)(C)[O-])c3c([N+](=O)[O-])ccc(C)c3nc12 | > 100 µM | 0.372 µM | 

Row | SMILES | EC50 | IC50 | outcome
23 | NC1CC(n2ccc(=O)[nH]c2=O)OC1C(O)CO (configuration not stated) | > 100 µM | > 100 µM | 
24 | Cc1cn(C2CC(O)C(CO[Si](C)(C)C(C)(C)C)OC2OC(C)C)c(=O)[nH]c1=O (configuration not stated) | > 200 µM | 37.2 µM | 
25 | CCCCOCOc1ccccc1P1(=O)COc2ccccc2OC1 | > 200 µM | 44.7 µM | 
26 | NC(=O)C1CC(=O)NCCCC(NC(=O)C(N)Cc2ccc(O)cc2)C(=O)NC(Cc2ccccc2)C(=O)N1 (configuration not stated) (H-Y[Orn]FD-NH2; lactam 2-4; configuration not given here) | > 100 µM | > 100 µM | 
27 | O=C1CC(=O)NP(=O)(Oc2ccccc2)N1 | > 1050 µM | > 1050 µM | 
28 | S=C1Cc2[nH]c(=S)sc(=S)c2C(=S)N1 | > 64.6 µM | 57.5 µM | 
29 | O=C1OC(c2ccccc2)c2cccnc21 (configuration not stated) | > 1170 µM | > 1170 µM | 
30 | O=S(=O)(NCCSSCCNS(=O)(=O)c1ccc(Cl)cc1)c1ccc(Cl)cc1 | > 200 µM | 17.8 µM | 
31 | Cc1nc2cc(N)c(F)cc2[nH]1 | > 537 µM | > 537 µM | 
32 | CC1(C)CCCC2(C)C3=C(CCC12)C(=O)OC3 (configuration not stated) | > 30.9 µM | > 30.9 µM | 
33 | CC(C)C(NC(=O)Oc1ccccc1)C(=O)NC1c2c(Br)sc(Br)c2C(=O)C1O (configuration not stated) | > 200 µM | 11.7 µM | 
34 | Cc1cc(N(CCC#N)CCC#N)ccc1/C(N=Nc1ccc([N+](=O)[O-])cc1)=N\NC(=O)c1cc(Cl)ccc1O | > 200 µM | 22.9 µM | 
35 | O=C(OCCOCCO)c1ccccc1-c1c2cc(I)c(=O)c(I)c-2oc2c(I)c(O)c(I)cc12 | > 200 µM | 5.13 µM | 
36 | CS(=O)(=O)CCC(N)P(=O)(O)O (configuration not stated) | > 200 µM | > 200 µM | 
37 | N#C/C(=C\NC(=S)Nc1ccccc1Cl)C(=O)c1ccc2ccccc2c1 | > 200 µM | 141 µM | 
38 | C=C1C(C(=O)O)C1C(=O)O (configuration not stated) |  |  | inactive
39 | COc1cccc2sc(-n3c(C)nc4ccccc4c3=O)nc12 | > 200 µM | > 200 µM | 
40 | CC1=C(C(=O)Nc2cccc(C(F)(F)F)c2)C(c2ccccc2F)C(C(=O)Nc2cccc(C(F)(F)F)c2)=C(C)N1 | > 32.4 µM | 18.6 µM | 
41 | O=C(c1ccco1)N(C(=S)N1CCN(c2ccccn2)CC1)c1ccccc1 | > 47.9 µM | 46.8 µM | 
42 | O=c1[nH]ncc2c1ncn2C1CCC(CO)O1 (configuration not stated) | 195 µM | > 200 µM | 
43 | CCOc1ccccc1N=NC1C(=O)N(C(=O)CC(=O)Nc2ccccc2Cl)N=C1C (configuration not stated) | > 200 µM | > 200 µM | 
44 | CC(=O)C(CN(C)C)C(c1ccccc1)c1c(O)c2ccccc2oc1=O (configuration not stated) | > 64.6 µM | 11 µM | 

Row | SMILES | EC50 | IC50 | outcome
45 | OCC1OC(n2cnc3cccnc32)CC1O (configuration not stated) | > 200 µM | > 200 µM | 
46 | CC1=N/C(=C\c2ccc(Cl)cc2)C(=O)O1 | > 32.4 µM | > 32.4 µM | 
47 | Cc1ccc(N=NC(=O)NNc2ccc(C)cc2Br)c(Br)c1 | > 200 µM | 35.5 µM | 
48 | O=c1oc2c3ccc4ccccc4c3n(CCCN3CCCCC3)c2c2ccccc12 | > 16.2 µM | 7.76 µM | 
49 | CC(=O)N(C)n1cn[n+](CC(=O)OC(C)(C)C)c1 | > 200 µM | > 200 µM | 
50 | COc1cc2c3c(c1)[nH]c(=S)n3C(=O)C(c1ccccc1)S2 (configuration not stated) | > 200 µM | 40.7 µM | 
51 | CC(C)=CCC/C(C)=C/Cc1cc2ccc(=O)oc2cc1O | > 63.1 µM | 32.4 µM | 
52 | c1ccc([CH2][Sn]([CH2]c2ccccc2)([O]c2cccc3cccnc23)[O]c2cccc3cccnc23)cc1 |  |  | inactive
53 | Cc1cc(-c2ccc(N=Nc3c(S(=O)(=O)O)cc4cc(S(=O)(=O)O)cc(N)c4c3O)c(C)c2)ccc1N=Nc1cc(S(=O)(=O)O)c2ccccc2c1O |  |  | inactive
54 | Clc1ccc(Cl)c2[s+]snc12 | > 14.5 µM | > 14.5 µM | 
55 | CCc1cccc(C(C)(C)C)c1NC(=S)N/C=C(/C#N)C(N)=O | > 200 µM | 151 µM | 
56 | Cc1[nH]c(=O)nc(N/N=C/c2ccc(Cl)cc2)c1C(=O)Nc1ccc(Cl)cc1 |  |  | inactive
57 | Cn1cccc(C(=O)c2ccccc2)c1=O |  |  | inactive
58 | O=[N+]([O-])c1c(/C=N/Nc2ccccc2)oc(-c2ccc3c(c2)OCO3)c1-c1ccc2c(c1)OCO2 | > 21.4 µM | 3.98 µM | 
59 | CCCC(/C=N/N=C(N)N)=N\N=C(N)N | > 83.2 µM | > 83.2 µM | 
60 | CCOP1(=O)C=C(Sc2ccc([N+](=O)[O-])cc2[N+](=O)[O-])C(C)(C)O1 (configuration not stated) | > 200 µM | 110 µM | 
61 | COC(=O)c1cc2ccccc2c(=O)s1 | > 16.2 µM | > 16.2 µM | 
62 | CC1(CC(=O)OC(C#C[Si](C)(C)C)Cc2ccccc2)OCCO1 (configuration not stated) | > 200 µM | 102 µM | 
63 | CC1(c2ccc(F)cc2)C(C#N)C(=O)NC(=O)C1C#N (configuration not stated) | > 912 µM | 170 µM | 
64 | CCN(CC)CCN1CCN=c2c3cc(OC)ccc3n3cnc4ccc1c2c43 | > 2 µM | 0.0347 µM | 
65 | Cc1ccc(C(=O)c2ccccc2C(=O)O)cc1C | > 200 µM | > 200 µM | 
66 | COC(NC(=O)Nc1ccccc1C)(C(F)(F)F)C(F)(F)F | > 200 µM | 57.5 µM | 

Row | SMILES | EC50 | IC50 | outcome
67 | O=C1C(=Cc2c(O)cc(O)cc2O)C(=O)c2ccccc21 | > 17.8 µM | > 17.8 µM | 
68 | OC/C=C/c1ccc(Cl)cc1 |  |  | inactive
69 | COc1ccc(NC(=O)CC(=O)n2nc(C)c(N=Nc3ccc(C)c(C)c3)c2C)cc1 | > 200 µM | > 200 µM | 
70 | O=c1c2cc([N+](=O)[O-])ccc2n2n1CCCCC2 | > 200 µM | > 200 µM | 
71 | CC(=O)O[C@H]1CC[C@H]2[C@@H]3CCC4=CC(=O)C=C[C@]4(O)[C@H]3CC[C@]12C | > 200 µM | 10.2 µM | 
72 | O=C(NC(=Nc1ccccc1)SCSC(=Nc1ccccc1)NC(=O)c1ccccc1F)c1ccccc1F | > 200 µM | 28.8 µM | 
73 | N#CCCN(c1ccc(C=O)cc1)S(=O)(=O)c1ccccc1 | > 22.9 µM | > 22.9 µM | 
74 | CC(C)C(/C=C/c1ccc(Cl)cc1)=N\NC(=S)NN | > 200 µM | 12 µM | 
75 | COc1ccc(-c2c(C#N)c(N)n(C3OCC(OC(C)=O)C(OC(C)=O)C3OC(C)=O)c(=S)c2C#N)cc1 (configuration not stated) | > 200 µM | 20.9 µM and 29.5 µM | 
76 | CC(C)=CCN1Cc2c(F)ccc3[nH]c(=S)n(c23)CC1C (configuration not stated) | 0.0398 µM | 70.8 µM | 
77 | CC[N+]1(C)CCC(O)(/C=C/c2ccc(OC)cc2)C(C(=O)/C=C/c2ccc(OC)cc2)C1 (configuration not stated) | > 200 µM | 1.12 µM | 
78 | Cc1cc2cc3n(c2nn1)N=C(Cl)CC3 | > 339 µM | 6.31 µM | 
79 | COc1c(OP2(=S)OCC(C)(C)CO2)cnn(C2CCCCC2)c1=O | > 200 µM | 24.5 µM | 
80 | COC(=O)/C=C/c1c(CC=C(C)C)ncn1C | > 537 µM | 3.47 µM | 
81 | COc1nc2nc[nH]c2c(=O)[nH]1 |  |  | inactive
82 | COC(NC(=O)Nc1ccc(C)cc1)(C(F)(F)F)C(F)(F)F | > 200 µM | 27.5 µM | 
83 | COc1cc(C(=O)Oc2ccc3c(c2)OCO3)cc(OC)c1OC | > 200 µM | > 200 µM | 
84 | CCCc1nn2c(-c3ccccc3)nnc2o1 | > 200 µM | 63.1 µM | 
85 | COc1cccc(/C=N/[N-]C(=O)c2ccncc2)c1[O-].[Ni+2].[OH3+] | > 105 µM | > 105 µM | 
